The source of these data is patent US20240327364A1, “THERAPEUTIC TARGETING OF GPR68 TO INDUCE FERROPTOSIS” (University Of Maryland, Baltimore, priority 2023, published 2024).

In test [1] the target is T1, CAMK1D (Homo sapiens, UniProt Q8IU85).
T1 construct: purchased DiscoveRx (KinomeScan service)
Briefly: KinomeScan. Type of test: binding. The following applies: read-out: % Control.

The target of test [2] is T2, EGFR(G719S) (Homo sapiens, UniProt P00533, G719S).
T2 construct: purchased DiscoveRx (Fremont, CA), KinomeScan service
Description: KinomeScan. Type of test: binding. The following applies: read-out: % Control.

In test [3] the target is T3, PHKG1 (Homo sapiens, UniProt Q16816).
T3 construct: purchased DiscoveRx (Fremont, CA)
Briefly: KinomeScan. The conditions noted are these: read-out: % Control. Type of test: binding.

Test [4] deals with T4, INSR (Homo sapiens, UniProt P06213).
T4 construct: purchased DiscoveRx (Fremont, CA)
Briefly: KinomeScan. Type of test: binding. The following applies: read-out: % Control.

The target in test [5] is T5, YSK4 (Homo sapiens, UniProt Q56UN5).
T5 construct: purchased DiscoveRx
Description: KinomeScan. Type of test: binding. The conditions noted are these: read-out: % Control.

Test [6] deals with T6, PRKD2 (Homo sapiens, UniProt Q9BZL6).
T6 construct: purchased DiscoveRx (Fremont, CA)
Description: KinomeScan. Type of test: binding. The conditions noted are these: read-out: % Control.

The target of test [7] is T7, PIK3CA (Homo sapiens, UniProt P42336).
T7 construct: purchased DiscoveRx (Fremont, CA)
Briefly: KinomeScan. Type of test: binding. The conditions noted are these: read-out: % Control.

Test [8] deals with T8, AKT3 (Homo sapiens, UniProt Q9Y243).
T8 construct: purchased DiscoveRx (Fremont, CA)
Briefly: KinomeScan. Type of test: binding. The following applies: read-out: % Control.

The target in test [9] is T9, CXCR5 (Homo sapiens, UniProt P32302).
T9 construct: host or cells: Chem-1 cells with Gα15
Briefly: GPCR Profiler. Type of test: cell-based.

The target in test [10] is T10, PIK3CA(E542K) (Homo sapiens, UniProt P42336, E542K).
T10 construct: purchased DiscoveRx (Fremont, CA)
Description: KinomeScan. Type of test: binding. The following applies: read-out: % Control.

In test [11] the target is T11, TP (Homo sapiens, UniProt P21731).
T11 construct: host or cells: Chem-1 cells with Gα15
Description: GPCR Profiler. Type of test: cell-based.

Test [12] deals with T12, NIM1 (Homo sapiens, UniProt Q8IY84).
T12 construct: purchased DiscoveRx
Briefly: KinomeScan. Type of test: binding. The conditions noted are these: read-out: % Control.

The target in test [13] is T13, CXCR4 (Homo sapiens, UniProt P61073).
T13 construct: host or cells: Chem-1 cells with Gα15
Briefly: GPCR Profiler. Type of test: cell-based.

Test [14] addresses T14, MEK4 (Homo sapiens, UniProt P45985).
T14 construct: purchased DiscoveRx (Fremont, CA)
Briefly: KinomeScan. Type of test: binding. The conditions noted are these: read-out: % Control.

The target of test [15] is T15, PYK2 (Homo sapiens, UniProt Q14289).
T15 construct: purchased DiscoveRx (Fremont, CA)
Briefly: KinomeScan. Type of test: binding. The following applies: read-out: % Control.

Test [16] deals with T16, BMX (Homo sapiens, UniProt P51813).
T16 construct: purchased DiscoveRx (Fremont, CA)
Briefly: KinomeScan. Type of test: binding. The following applies: read-out: % Control.

Test [17] concerns the target T17, APJ (Homo sapiens, UniProt P35414).
T17 construct: host or cells: Chem-1 cells with promiscuous Gα15
Description: GPCR Profiler. Type of test: cell-based.

Test [18] concerns the target T18, 5-HT2B (Homo sapiens, UniProt P41595).
T18 construct: host or cells: Chem-1 cells with promiscuous Gα15
Description: GPCR Profiler. Type of test: cell-based.

Test [19] concerns U87. Description: Western blot (TFRC, HO-1, cleaved caspase 3). Type of test: cell-based, human. The procedure:
Using Pierce™ BCA Protein Assay Kit (ThermoFisher Scientific™), protein concentrations were determined for each sample following manufacturing protocol. Gel electrophoresis was conducted on NuPAGE™ 4-12% Bis-Tris gels (Invitrogen™) using 20 ug of total protein per sample. Proteins were transferred to PVDF membranes by semi-dry transfer. Membranes were blocked using Intercept® (PBS) Blocking Buffer (LI-COR™) for one hour at room temperature on a tilting shaker. Primary antibodies in 5% non-fat dry milk were added to the membranes for overnight incubation at 4° C. on a rotating shaker. Primary antibodies included transferrin receptor (TFRC), heme-oxygenase 1 (HO-1), and cleaved caspase 3 with GAPDH and α-tubulin used as normalization controls. The next day, membranes were washed in three, five-minute intervals with PBST (Tween 0.5%). Corresponding secondary HRP-conjugated antibodies in 5% non-fat dry milk were added to incubate at room temperature for one hour on a tilting shaker. The membranes were washed with PBST in four, five-minute intervals before protein visualization using Radiance Q (Azure Biosystems™) on Bio-Rad™ ChemiDoc™ MP Imaging System. Protein quantification was completed in triplicate using Fiji software package.
A general note: A western blot detects proteins with antibodies after separation by electrophoresis.

In test [20] the test system is PDX 08-387 cells. Description: Cell survival, OGM2 with TMZ. The conditions noted are these: OGM2 and TMZ, cell killing. Type of test: cell-based, human. Here is the method: GBM neurospheres and low passage PDX models were plated in 96-well plates at 10,000 cells per well in 50 μL of neural stem cell media. The next day, the cells were treated with OGM2 compounds at the indicated concentrations, in triplicates, by adding an equal volume of medium containing 2× the final concentration of compound. Following 72 hours incubation under standard cell culture conditions, relative cell number was assessed using Cell Titer-Glo Luminescent Cell Viability Assay (Promega™) following the manufacturer's instructions. Luminescence was determined using a Cytation 5 reader and Gen5 software package (BioTek™). For U87 and U138 cell lines, one thousand cells were plated per well in a standard 96-well plate and allowed to attach for 24 hours before exposure to concentrations of vehicle, OGM2, or TMZ. Cells were treated for 72 hours and then stained with DAPI. A 10× magnification lens on a LionheartFX (BioTek™) was used to image the wells, and images were stitched together with Gen5 software (BioTek™). Automated nuclei counting was also done using the Gen5 software. Results reported as percent response relative to DMSO control. […]
Where appropriate, ANOVA, or student's T-test were conducted in PRISM. […] For drug interaction and therapeutic interaction, the coefficient of drug interaction (CDI) was calculated as follows: CDI=AB/(A×B). […]

The structures appear in SMILES notation.

T13 sequence (P61073 whole entry, species assumed): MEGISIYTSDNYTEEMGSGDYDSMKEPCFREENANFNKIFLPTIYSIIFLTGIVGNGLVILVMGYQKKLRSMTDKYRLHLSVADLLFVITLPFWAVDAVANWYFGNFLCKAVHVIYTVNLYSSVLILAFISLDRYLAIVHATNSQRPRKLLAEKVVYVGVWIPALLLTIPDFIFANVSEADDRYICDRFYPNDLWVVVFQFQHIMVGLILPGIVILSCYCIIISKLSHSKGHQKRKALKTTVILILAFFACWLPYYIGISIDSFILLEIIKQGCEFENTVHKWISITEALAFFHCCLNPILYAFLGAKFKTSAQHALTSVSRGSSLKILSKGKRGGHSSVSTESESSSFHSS
T11 sequence (P21731 whole entry): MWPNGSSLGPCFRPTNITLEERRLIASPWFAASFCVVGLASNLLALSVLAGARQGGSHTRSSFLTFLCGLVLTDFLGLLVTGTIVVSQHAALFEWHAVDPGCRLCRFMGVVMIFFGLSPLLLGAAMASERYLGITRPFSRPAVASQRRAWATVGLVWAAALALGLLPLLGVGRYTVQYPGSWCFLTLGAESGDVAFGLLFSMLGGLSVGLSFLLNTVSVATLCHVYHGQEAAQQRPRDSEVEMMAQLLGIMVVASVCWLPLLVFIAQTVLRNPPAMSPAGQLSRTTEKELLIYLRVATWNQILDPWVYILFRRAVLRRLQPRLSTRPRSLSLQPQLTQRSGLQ
T18 sequence (P41595 whole entry): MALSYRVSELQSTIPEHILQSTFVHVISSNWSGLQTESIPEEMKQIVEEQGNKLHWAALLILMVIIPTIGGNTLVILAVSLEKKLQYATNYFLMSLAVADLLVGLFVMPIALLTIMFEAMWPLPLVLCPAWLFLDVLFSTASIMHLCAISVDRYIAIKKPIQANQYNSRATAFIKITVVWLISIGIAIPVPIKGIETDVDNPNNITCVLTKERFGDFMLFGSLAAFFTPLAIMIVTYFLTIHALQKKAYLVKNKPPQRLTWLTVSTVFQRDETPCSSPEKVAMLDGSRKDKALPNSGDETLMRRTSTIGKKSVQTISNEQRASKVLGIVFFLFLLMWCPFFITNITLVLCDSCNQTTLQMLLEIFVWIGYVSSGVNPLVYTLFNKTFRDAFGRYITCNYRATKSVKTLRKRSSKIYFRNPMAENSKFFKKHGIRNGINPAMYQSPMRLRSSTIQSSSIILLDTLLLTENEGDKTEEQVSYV
T9 sequence (P32302 whole entry, species assumed): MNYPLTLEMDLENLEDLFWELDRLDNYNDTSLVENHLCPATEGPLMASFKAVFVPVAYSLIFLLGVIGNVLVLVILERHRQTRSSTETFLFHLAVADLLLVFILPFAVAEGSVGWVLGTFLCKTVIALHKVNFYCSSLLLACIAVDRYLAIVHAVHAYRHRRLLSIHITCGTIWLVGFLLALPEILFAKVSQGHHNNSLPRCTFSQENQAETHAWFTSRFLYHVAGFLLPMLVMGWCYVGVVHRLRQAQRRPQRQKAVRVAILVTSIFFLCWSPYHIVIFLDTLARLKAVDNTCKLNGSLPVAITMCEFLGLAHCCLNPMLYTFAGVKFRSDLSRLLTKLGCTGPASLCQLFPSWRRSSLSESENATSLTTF
T17 sequence (P35414 whole entry, species assumed): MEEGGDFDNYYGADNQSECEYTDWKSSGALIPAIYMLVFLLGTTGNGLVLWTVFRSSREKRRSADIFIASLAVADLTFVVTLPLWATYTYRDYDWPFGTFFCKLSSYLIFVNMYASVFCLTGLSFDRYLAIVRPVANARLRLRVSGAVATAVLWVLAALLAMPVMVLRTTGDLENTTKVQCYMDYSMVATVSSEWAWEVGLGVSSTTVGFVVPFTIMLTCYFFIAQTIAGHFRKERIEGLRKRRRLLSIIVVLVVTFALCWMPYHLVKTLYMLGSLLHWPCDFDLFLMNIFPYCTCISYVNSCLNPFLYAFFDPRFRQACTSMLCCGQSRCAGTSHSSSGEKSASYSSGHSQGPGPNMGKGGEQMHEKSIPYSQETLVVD
T15 sequence (Q14289 whole entry): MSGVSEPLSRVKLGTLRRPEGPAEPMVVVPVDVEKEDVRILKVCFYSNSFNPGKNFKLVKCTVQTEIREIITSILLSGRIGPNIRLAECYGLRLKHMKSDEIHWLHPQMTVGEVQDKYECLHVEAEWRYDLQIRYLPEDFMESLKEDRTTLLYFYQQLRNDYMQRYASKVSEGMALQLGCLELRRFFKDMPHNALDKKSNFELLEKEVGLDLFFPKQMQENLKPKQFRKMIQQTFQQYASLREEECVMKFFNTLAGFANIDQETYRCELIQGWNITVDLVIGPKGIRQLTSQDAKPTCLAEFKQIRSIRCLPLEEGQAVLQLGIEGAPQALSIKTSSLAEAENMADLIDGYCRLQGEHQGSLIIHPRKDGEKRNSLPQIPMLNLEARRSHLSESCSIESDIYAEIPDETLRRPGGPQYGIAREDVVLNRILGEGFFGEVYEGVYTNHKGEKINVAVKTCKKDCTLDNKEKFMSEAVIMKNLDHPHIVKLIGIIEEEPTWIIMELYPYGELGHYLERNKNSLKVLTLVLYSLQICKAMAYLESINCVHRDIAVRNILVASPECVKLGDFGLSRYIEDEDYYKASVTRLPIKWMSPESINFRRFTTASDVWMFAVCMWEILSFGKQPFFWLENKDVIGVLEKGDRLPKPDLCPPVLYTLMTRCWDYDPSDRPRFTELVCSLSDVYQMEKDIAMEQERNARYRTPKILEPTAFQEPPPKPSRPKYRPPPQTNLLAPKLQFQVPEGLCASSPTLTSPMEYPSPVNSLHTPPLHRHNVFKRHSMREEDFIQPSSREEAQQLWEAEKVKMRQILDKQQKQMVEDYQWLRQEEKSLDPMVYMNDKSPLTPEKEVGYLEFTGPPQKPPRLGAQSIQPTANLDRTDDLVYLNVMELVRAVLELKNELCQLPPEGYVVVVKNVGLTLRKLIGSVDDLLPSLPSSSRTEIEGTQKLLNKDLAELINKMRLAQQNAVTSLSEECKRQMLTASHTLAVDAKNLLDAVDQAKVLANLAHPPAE
T5 sequence (Q56UN5 whole entry): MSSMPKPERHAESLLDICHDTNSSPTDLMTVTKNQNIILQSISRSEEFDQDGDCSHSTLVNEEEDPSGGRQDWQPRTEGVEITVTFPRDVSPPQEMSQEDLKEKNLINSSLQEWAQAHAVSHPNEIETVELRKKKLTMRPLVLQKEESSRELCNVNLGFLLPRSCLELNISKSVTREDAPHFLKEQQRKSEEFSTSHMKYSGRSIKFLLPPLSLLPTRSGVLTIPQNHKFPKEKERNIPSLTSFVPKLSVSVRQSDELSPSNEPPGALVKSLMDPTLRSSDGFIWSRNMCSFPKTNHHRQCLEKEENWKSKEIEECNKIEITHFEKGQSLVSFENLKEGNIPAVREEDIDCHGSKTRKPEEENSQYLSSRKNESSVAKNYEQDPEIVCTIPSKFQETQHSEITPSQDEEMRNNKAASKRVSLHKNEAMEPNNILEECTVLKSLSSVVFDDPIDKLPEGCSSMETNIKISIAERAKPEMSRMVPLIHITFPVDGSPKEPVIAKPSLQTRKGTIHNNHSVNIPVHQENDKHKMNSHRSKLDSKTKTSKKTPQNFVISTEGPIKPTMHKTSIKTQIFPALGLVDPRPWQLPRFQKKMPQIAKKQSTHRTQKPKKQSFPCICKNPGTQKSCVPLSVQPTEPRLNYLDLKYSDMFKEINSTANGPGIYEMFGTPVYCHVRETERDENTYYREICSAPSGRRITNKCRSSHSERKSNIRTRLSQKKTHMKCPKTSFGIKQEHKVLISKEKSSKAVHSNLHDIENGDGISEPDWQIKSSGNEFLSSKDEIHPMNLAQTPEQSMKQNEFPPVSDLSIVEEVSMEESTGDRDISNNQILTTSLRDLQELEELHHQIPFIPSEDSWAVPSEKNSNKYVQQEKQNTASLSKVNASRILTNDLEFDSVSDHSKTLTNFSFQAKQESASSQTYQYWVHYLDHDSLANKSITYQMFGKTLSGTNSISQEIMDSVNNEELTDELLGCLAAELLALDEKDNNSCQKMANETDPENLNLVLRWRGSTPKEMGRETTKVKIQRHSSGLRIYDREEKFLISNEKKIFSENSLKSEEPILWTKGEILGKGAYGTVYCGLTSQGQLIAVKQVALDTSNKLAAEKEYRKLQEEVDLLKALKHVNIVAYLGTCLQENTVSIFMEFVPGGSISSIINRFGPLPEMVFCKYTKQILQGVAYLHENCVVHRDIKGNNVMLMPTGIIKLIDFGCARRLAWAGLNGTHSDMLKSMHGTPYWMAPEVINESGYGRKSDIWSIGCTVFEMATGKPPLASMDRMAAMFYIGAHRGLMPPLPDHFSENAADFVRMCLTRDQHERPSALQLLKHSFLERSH
T1 sequence (Q8IU85 whole entry): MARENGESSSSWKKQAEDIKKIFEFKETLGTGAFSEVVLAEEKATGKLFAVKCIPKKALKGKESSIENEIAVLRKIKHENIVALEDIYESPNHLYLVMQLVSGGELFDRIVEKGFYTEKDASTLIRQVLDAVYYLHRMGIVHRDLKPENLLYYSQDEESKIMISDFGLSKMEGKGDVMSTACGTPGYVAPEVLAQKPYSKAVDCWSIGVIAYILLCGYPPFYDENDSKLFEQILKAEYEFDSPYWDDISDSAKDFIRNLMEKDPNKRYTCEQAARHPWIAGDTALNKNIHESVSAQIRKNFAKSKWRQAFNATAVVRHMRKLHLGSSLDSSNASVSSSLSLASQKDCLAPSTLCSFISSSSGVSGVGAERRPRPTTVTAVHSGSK

Consider `CCc1ccc2c(c1)C1(NN=C(c3cccc4ccccc34)S1)C(=O)N2` (centres unmarked) [OGM1, 5-ethyl-5′-naphthalen-1-ylspiro[1H-indole-3,2′-3H-1,3,4-thiadiazole]-2-one], for which the remaining binding at 10 µM was found to be 68% in test [1]; 95% in [2]; 91% in test [3]; 80% in test [4]; 100% in [5]; 87% in [6]. Moreover, the remaining binding at 10 µM in test [7] was 100%; in test [8] it was 100%; in test [10], 73%; in [12] it was 96%; in test [14] it was 100%; in test [15], 100%. Also, the remaining binding at 10 µM in test [16] turned out to be 100%. For the same compound, the Antagonism is on record as −2 in test [9] (10 uM); 8.1 in test [11] (10 uM); −6.9 in test [13] (10 uM); 7.7 in test [17] (10 uM); 0.3 in [18] (10 uM). Besides, the Agonism in test [9] (12.5 uM) is 0.9; in test [11] (12.5 uM) it was 0.2; in test [13] (12.5 uM), 1.5; in [17] (12.5 uM), 0.9; in test [18] (12.5 uM), −0.1.
Consider `CCc1ccc2c(c1)C1(NN=C(c3ccccc3)S1)C(=O)N2` (centres unmarked) [OGM2], for which, in test [19], the “cleaved caspase 3 level” value is “did not increase”; the “protein levels of TFRC and HO-1” value is recorded as “significantly increased”. Moreover, in [20], the “coefficient of drug interaction (CDI)” value is recorded as less than 0.7.
